Series [1] relates to CMV promoter-NanoLuc® gene transfected HEK293 cells. Put plainly: Live cell reporter gene assay, luminescent signal decay over time with/without porcine liver esterase (PLE). Particulars: DMEM, 10% FBS. It counts as cell-based. How it is done: The synthesized pro-coelenterazine or pro-furimazine compounds were evaluated in a live cell reporter gene assay. As shown in FIGS. 3A-C, the luminescent signal decays were monitored over time in HEK293 cells in DMEM media with 10% FBS transfected with 10 ng/well of CMV promoter-NanoLuc® gene with/without adding exogenous esterase porcine liver esterase (PLE) with three representative pro-coelenterazine analogues, e.g. serum instable compound WZ-0308, traditional live cell pro-substrate PBI-4377, and disclosed serum stable compound WZ-0324. The evaluations were performed by the following protocol.
Day 1: Plate cells. HEK293 cells were grown in complete medium (DMEM+10% FBS+1× Non-Essential Amino Acids (NEAA)). The cells were harvested at passasge 6 (˜95% confluent), by a procedure of: washing with DPBS, treating the cells with TrypLE Express until cells dislodged, adding 4× volumes of complete medium, pelleting at 188×g for 2 minutes, and suspending the cells in complete medium to 7.35E4 cells/mL. The cells were plated 100 μL per well into the inner 60 wells of 96-well plates (7,350 cells per well): 100 μL DPBS in the 36 outside wells and 100 μL DPBS between wells. The cells were than incubated overnight at 37° C., 5% CO2.
Day 2: Transfection. Two two master mixes (MM) were made: MM#1: 1.63 μL prep #1; 9.5 μL prep #3; 1.9 mL OM1; and MM#2: 2.9 uL prep #2; 9.5 μL prep #3; 1.9 mL OM1. 35.6 μl FuGENE HD was added to each MM and mixed by pipetting up/down. The mixture was incubated for ˜10 minutes at room temperature. Next, 8 μL of the mixture was added per well using single channel repeater pipette; n=3 per condition. The mixture was then incubated for ˜24 hours at 37° C., 5% CO2.
(§1) Day 3: Live cell assay. Stocks of tested compounds in DMSO (500×) were prepared by serial dilution of 50 mM stock with DMSO. The Medium+/− porcine liver esterase (PLE) at room temperature was prepared by adding 1 and 0.333 ug/ml PLE in CO2 IM+10% FBS. CO2 IM+10% FBS with no added PLE was also prepared. Next, medium+test compound solutions (room temperature) was prepared by the steps of: adding 2 mL of respective medium per channel, adding 4 μL respective tested compound stock per channel and mixing by pipetting up/down 10-15×. The final DMSO concentration was 0.2% v/v. The DMSO solution was dropped to the bottom of the channel, showing precipitation for the higher concentrations. After pipetting up/down, solutions with WZ-0324 at a final concentration of ≥50 uM were noticeably hazy (100 uM>75 uM>50 uM), in some cases even after extended incubation at 37° C. The Solutions were allowed to stand at room temperature for 15-20 minutes prior to addition to cells (P1->P2->P3).
The medium was aspirated and replaced with 200 μL/well of respective medium+tested compound solution. DPBS was added to 200 μL total to outside 36× wells. The system was quickly moved to respective GMM+ to start RLU measurements at 37° C. The measuments were carried out under the following conditions: 1 second integration time; RLU measurement every 15 minutes; the lid was removed for the overnight RLU measurements; and initial RLU measurement would be <37° C. owing to the addition of room temperature medium and cooling of the plate.
Data analysis: average RLU plotted for n=3; error represented as standard deviation was included in each imbedded Prism file, but not shown for the sake of clarity in interpreting the curves.

The nature of series [2]: Haze (solubility) observation of medium + test compound solutions. Format: physicochemical. Particulars: for concentration above which haze was observed: medium + compound solution. How it is done: as §1
Series [3] can be described thus: Stability test by HPLC in DMSO or DMEM media with or without fetal bovine serum. Particulars: 40 μM; DMEM media with 10% FBS; 10 hours. Format: in vitro ADME. The procedure: “Serum stability” refers to the stability of a compound in media or culture that includes serum. The serum as used herein may include, but is not limited to, fetal bovine serum (FBS). Serum stability of a compound as used herein generally may be characterized by the extent of degradation of such compound in a serum over a period of time. For example, a compound may degrade by less than 25%, less than 20%, less then 15%, or even less than 10% in FBS over a period of 24 hours or longer. For live cell assays, serum (such as FBS) is a component to maintain cell health. The degree of degradation of the disclosed compounds or the other pro-coelenterazine analogues in DMSO control, or DMEM media with/without FBS, can be monitored by HPLC using specific elution solvent/buffer (e.g. 0.1% TFA and acetonitrile) under the same condition at certain time of points. The percentage of purity can be calculated by the peak area of the tested compound divided by the total peak areas including tested compound and degradation compounds at their corresponding retention time at certain absorbance wavelength (e.g. 260 nm) at certain time point in media with/without FBS. The changes of purity for a given compound over time indicate the degree of instability of the compound in media/culture with/without serum.
The tested compounds were dissolved in DMSO stock at a concentration of 20 mM. […]

For series [4], the system named is HEK 293 cells transiently transfected with SmBiT-PRKACA and LgBiT-PRKAR2A. Put plainly: Live cell assay, luminescent signal decay over time in HEK293 cells expressing the PKA NanoBiT pair. Format: cell-based. Conditions: DMEM, 4% FBS; for strength of signal relative to PBI-4377: concentration above 20 uM; for luminescent signal decay: almost independent of concentration. The procedure:
Compounds WZ-0429, WZ-0439, WZ-0454, WZ-0441, WZ-0451. WZ-0416, WZ-0420, WZ-0461 and WZ-0419 were tested in HEK 293 cells transiently transfected plasmid DNA constructs for SmBiT-PRKACA and LgBiT-PRKAR2A expressed via the HSV-TK promoter in DMEM media with 4% FBS, and the luminescent signal decays were monitored over time. […] In contrast, the serum instable compounds, WZ-0429. […] The evaluations of compounds WZ-0429, WZ-0439, WZ-0454, WZ-0441, WZ-0451. WZ-0416, WZ-0420, WZ-0461 and WZ-0419 were performed by the following protocol.
Day 1, plate cells. HEK293 cells were grow in complete medium [DMEM+10% FBS+1× NEAA]. Cells were plated at approximately 10,000 cells per well (100 μL) in 96-well plates (Corning 3917).
Day 2, transient transfection. Plasmid DNA constructs for SmBiT-PRKACA and LgBiT-PRKAR2A expressed via the HSV-TK promoter were diluted to 6.25 ng/μL in Opti-MEM® I and FuGENE HD was added at a 3:1 lipid:DNA ratio. After a 5-10 minute incubation at room temperature, 8 μl of lipid:DNA solution was added per well, and cells were incubated in a 37° C., 5% CO2 incubator overnight.
Day 3, live cell assay. Compounds were dissolved to 50 mM final in DMSO. Compounds were diluted in DMSO to give 33.3, 16.7 and 6.7 mM stocks. DMSO stock solutions were diluted 667-fold in Opti-MEM® I to give 1× solutions. Complete medium was aspirated and replaced with the respective 1× solution containing 75, 50, 25 or 10 uM of the respective compounds (0.15% v/v DMSO final), such as WZ-0429, WZ-0439, WZ-0454, WZ-0441WZ-0451, WZ-0416, WZ-0420 and WZ-0419, but containing 40, 30, 20 or 10 μM as an instead for compound WZ-0461. Luminescence was measured on a GloMax Multi Plus luminometer every 15 minutes at 37° C. using a 1 second integration time.

The source of these data is patent US10836767B2, “Serum stable pro-coelenterazine analogues” (PROMEGA CORPORATION, priority 2017, dated 2020).

“Also recorded” adds a separate entry of the source.

In the case of `CC(=O)OCOc1c(Cc2ccco2)nc2c(Cc3ccccc3)nc(-c3ccccc3)cn12` [WZ-0308], the “signal at the initial time point” value in series [1] is listed as “highest signal”. Also, the luminescent signal decay result in series [1] (FIG. 3A) was “rapid signal decay”. For the same compound, the “period of rapid luminescent signal decay” value in series [1] (even without exogenous PLE) was 2 to 3 h. With `COCCOCCOCC(C)(C)C(=O)OCOc1c(Cc2ccco2)nc2c(Cc3ccccc3)nc(-c3ccccc3)cn12` [WZ-0324, ((8-benzyl-2-(furan-2-ylmethyl)-6-phenylimidazo[1,2-a]pyrazin-3-yl)oxy)methyl 3-(2-(2-methoxyethoxy)ethoxy)-2,2-dimethylpropanoate], the “final concentration at which solutions were noticeably hazy” value in series [2] (CO2 IM + 10% FBS, 0.2% v/v DMSO, after pipetting up/down) was at least 50 µM. The entries for the “concentration above which haze was observed” value in series [2] and in series [2] (listed as WZ-324) were “above 70 μM” and over 70 µM, respectively. Also, the “luminescence after addition of exogenous PLE esterase versus without PLE” value in series [1] (PLE added) is reported as “significantly enhanced; also recorded: significantly higher luminescence”. For the same compound, the “signal in the absence of exogenous PLE esterase, versus PBI-4377” value in series [1] (no PLE) is on record as “higher signal”. With `CC(C)C(=O)OCOc1c(Cc2ccco2)nc2c(Cc3ccccc3)nc(-c3ccccc3)cn12` [WZ-0415], in series [3], the “degradation (HPLC purity change)” value is listed as “approximately 50%”. As to `O=C(OCOc1c(Cc2ccco2)nc2c(Cc3ccccc3)nc(-c3ccccc3)cn12)c1ccccc1` [WZ-0416, ((8-benzyl-2-(furan-2-ylmethyl)-6-phenylimidazo[1,2-a]pyrazin-3-yl)oxy)methyl benzoate], in series [4], the “signal strength (brightness) relative to PBI-4377” value is “comparable or slightly better”. Turning to `O=C(OCOc1c(Cc2ccco2)nc2c(Cc3ccccc3)nc(-c3ccccc3)cn12)c1ccco1` [WZ-0420, ((8-benzyl-2-(furan-2-ylmethyl)-6-phenylimidazo[1,2-a]pyrazin-3-yl)oxy)methyl furan-2-carboxylate], the “strength of signal relative to PBI-4377” value in series [4] is 10 times. Consider `O=C(OCOc1c(Cc2ccco2)nc2c(Cc3ccccc3)nc(-c3ccccc3)cn12)C1CCCO1` (centres unmarked) [WZ-0429], for which, in series [4], the luminescent signal decay entry is recorded as “rapid signal decay”. The same measure, in the same setting: then `O=C(OCOc1c(Cc2ccco2)nc2c(Cc3ccccc3)nc(-c3ccccc3)cn12)C1CCOC1` (centres unmarked) [WZ-0439], with “rapid signal decay”. Turning to `C=CCOC(=O)N1CCC(C(=O)OCOc2c(Cc3ccco3)nc3c(Cc4ccccc4)nc(-c4ccccc4)cn23)C1` (centres unmarked) [WZ-0441], the luminescent signal decay result in series [4] is listed as “rapid signal decay”. `COC(C)(C)C(=O)OCOc1c(Cc2ccco2)nc2c(Cc3ccccc3)nc(-c3ccccc3)cn12` [WZ-0451, ((8-benzyl-2-(furan-2-ylmethyl)-6-phenylimidazo[1,2-a]pyrazin-3-yl)oxy)methyl 2-methoxy-2-methylpropanoate]: in series [4], the “strength of signal relative to PBI-4377” value worked out at 10 times. Turning to `COC(OC)C(=O)OCOc1c(Cc2ccco2)nc2c(Cc3ccccc3)nc(-c3ccccc3)cn12` [WZ-0454], the luminescent signal decay result in series [4] was “rapid signal decay”. As for `O=C(OCOc1c(Cc2ccco2)nc2c(Cc3ccccc3)nc(-c3ccccc3)cn12)c1ccoc1` [WZ-0461, ((8-benzyl-2-(furan-2-ylmethyl)-6-phenylimidazo[1,2-a]pyrazin-3-yl)oxy)methyl furan-3-carboxylate], in series [4], the “signal strength (brightness) relative to PBI-4377” value was “comparable or slightly better”.
